Assay results published in patent US20260124192A1, “COMPOUNDS, COMPOSITIONS, AND METHODS OF TREATING RNA VIRAL INFECTIONS” (priority 2024, published 2026).

Experiments:
[1] = test system: SARS-CoV-2 Delta (B.1.617.2); experiment: SARS-CoV-2 CPE assay, Vero 76 (Method 2); assay type: cell-based; details: Severe acute respiratory syndrome coronavirus 2, 2% FBS
SARS-CoV-2 USA-WA1/2020 [2] = experiment: SARS-CoV-2 CPE assay, A549-ACE2 (Method 2); assay type: cell-based; details: 2% FBS
SARS-CoV-2 USA-WA1/2020 [3] = experiment: SARS-CoV-2 CPE assay, Vero 76 (Method 2); assay type: cell-based; details: Severe acute respiratory syndrome coronavirus 2, 2% FBS
[4] = Cytotoxicity, neutral red, Vero E6; assay type: cell-based; details: African green monkey, Vero E6 cells (uninfected toxicity wells), with CPE assay, not converted for FBS
Experimental: Confluent or near-confluent cell culture monolayers of Vero E6 cells are prepared in 96-well disposable microplates the day before testing. Cells are maintained in MEM supplemented with 5% FBS. For antiviral assays the same medium is used but with FBS reduced to 2% and supplemented with 50-μg/ml gentamicin. Compounds are dissolved in DMSO, saline or the diluent requested by the submitter. […] The test compound is prepared at four serial log 10 concentrations, usually 0.1, 1.0, 10, and 100 μg/ml or μM (per sponsor preference). Lower concentrations are used when insufficient compound is supplied. Five microwells are used per dilution: three for infected cultures and two for uninfected toxicity cultures. Controls for the experiment consist of six microwells that are infected and not treated (virus controls) and six that are untreated and uninfected (cell controls) on every plate. A known active drug is tested in parallel as a positive control drug using the same method as is applied for test compounds. The positive control is tested with every test run.
Growth media is removed from the cells and the test compound is applied in 0.1 ml volume to wells at 2× concentration. Virus, normally at ˜60 CCID50 (50% cell culture infectious dose) in 0.1 ml volume is added to the wells designated for virus infection. […] The dye content in each well is quantified using a spectrophotometer at 540 nm wavelength. […]

[5] = test system: SARS-CoV-2 Beta (B.1.351); experiment: SARS-CoV-2 IF assay, HeLa-ACE2 (Method 1); assay type: cell-based; details: 2% FBS
Influenza A H1N1/WSN/33 = experiment: Influenza A virus IF assay, A549 (Method 7)
Experimental: A549 cells were infected with each viral strain at MOI 0.05. After 24 h post-infection with A/WSN/33 cells were fixed with 4% formaldehyde for 30 min. Cells were briefly washed with PBS, then permeabilized with 0.1% Triton X-100 in PBS for 15 minutes. Blocking occurred at room temperature for 1 hour with 0.5% BSA in PBS followed by incubation with the NP antibody (HT103, a gift from Thomas Moran) in 0.5% BSA in PBS for 1 hour at room temperature. Cells were washed with PBS 2× and incubated with a fluorescently-labeled secondary antibody, alexa-fluor-488 (Invitrogen), in 0.5% BSA in PBS with DAPI for 45 min at room temperature. Two washes with PBS were performed before imaging the cells on a Celigo Image Cytometer. Infected cells (488 nm) and total cells (DAPI) were quantified using the Celigo (Nexcelcom) imaging cytometer. Infectivity was measured by the accumulation of viral NP protein (fluorescence accumulation). Percent infection was quantified as ((Infected cells/Total cells)−Background)*100 and the DMSO control was then set to 100% infection for analysis. Data was fit using nonlinear regression and IC50s for each experiment were determined using GraphPad Prism version 8.0.2 (San Diego, CA). Cytotoxicity was also performed using the MTT assay (Roche), according to the manufacturer's instructions. […]

FBS = experiment: Protein binding by rapid equilibrium dialysis (RED) in FBS; details: 1 μM, n = 3
[6] = XTT cell viability assay, Huh-luc/neo-ET; assay type: cell-based; details: human, Huh-luc/neo-ET cells, with HCV replicon assay, not converted, read-out: CC50
Experimental: (§1) Twenty-four hours after seeding the cells, the cell culture supernatant was removed from each well and replaced with 175 μL fresh complete medium minus G418. Test compounds were evaluated at a high-test concentration of 10 μM and five serial half-logarithmic dilutions in three biological replicates. In three biological replicates, Sofosbuvir was evaluated in parallel at a high-test concentration of 1 μM and five serial half-logarithmic dilutions. Compounds were first serially diluted in DMSO to 400× of each final in-well concentration. An intermediate 8× solution was prepared in a complete medium and then added to the cells in a volume of 25 μL per well. A complete medium containing an equal percentage of DMSO (v/v) was added to vehicle-treated control cells. The final DMSO concentration was 0.25% (v/v) for all samples. The cells were incubated for an additional 72 hours at 37° C./5% CO2, then HCV replication was measured by luciferase activity and cell viability was assessed in parallel using an XTT colorimetric assay.
(§2) Huh-luc/neo-ET cell viability was measured at 72 hours after treatment using the tetrazolium dye XTT (2,3-bis(2-methoxy-4-nitro-5-sulfophenyI)-5[(phenylamino)carbonyl]-2H-tetrazolium hydroxide). Mitochondrial enzymes of metabolically active cells metabolize XTT-tetrazolium to a soluble formazan product. XTT solution was prepared fresh at 1 mg/mL in DMEM. Phenazine methosulfate (PMS) solution was prepared at 0.15 mg/mL in PBS and stored in the dark at −20° C. An XTT/PMS stock was prepared immediately before use by adding 40 μL of PMS per ml of XTT solution. Fifty microliters (50 μL) XTT/PMS were added per well, and the cells were incubated for 4 hours at 37° C. The cell culture plates were then sealed with adhesive plate sealers and shaken gently or inverted several times to mix the soluble formazan product. The formazan product was measured spectrophotometrically by absorbance at 450/650 nm on a Vmax plate reader (Molecular Devices). The raw data in Softmax Pro 5.4.2 software was imported into Microsoft Excel for further analysis. Data are presented as absorbance values (450/650 nm) or the percentage of viable cells relative to vehicle-treated control (mean+1—standard deviation, n=3 biological replicates from one independent experiment).

Huh-luc/neo-ET cells = experiment: XTT cell viability assay, Huh-luc/neo-ET; assay type: cell-based; details: XTT, 72 hours, read-out: HCV 1b - TC50
Experimental: as §1, §2

[7] = Cytotoxicity, MTT assay in uninfected A549; assay type: cell-based; details: human, uninfected A549 cells, with Influenza A IF assay, not converted
Norwalk Virus = experiment: Norwalk virus CPE assay, HG23 (Method 6); assay type: cell-based; details: Norovirus Norwalk Virus, 2% FBS, @ 5 μM
Experimental: Compounds were tested in an assay medium containing 2% fetal bovine serum (FBS). Test compounds were added to cells prior to infection with virus at a multiplicity of infection (MOI) sufficient to induce visible cytopathic effect (CPE). […] Additionally, the EC90 was defined as the concentration required to achieve a 1 log10 reduction in viral titer. Dose-response curves depicting viral CPE (red line) and compound cytotoxicity (purple line) were generated to support these analyses.

SARS-CoV-2 USA-WA1/2020 [8] = experiment: SARS-CoV-2 immunofluorescence (IF) assay, HeLa-ACE2 (Method 1); assay type: cell-based; details: Severe acute respiratory syndrome coronavirus 2, HeLa-ACE2, SARS-CoV-2 USA-WA1/2020, 2% FBS

Cc1c(-c2ccc(O)cc2)n(Cc2ccc(OCCN3CCCCC3)cc2)c2ccc(O)cc12 [Pipendoxifene]
EC50 [1]: 2400 nM | EC50 (SARS-CoV-2 USA-WA1/2020 [2]): 1900 nM | EC50 (SARS-CoV-2 USA-WA1/2020 [3]): 2600 nM | CC50 [4]: 3200 nM | EC50 ([5]; SARS-CoV-2 Beta (B.1.351)): 668 nM | EC50 ([5]; Severe acute respiratory syndrome coronavirus 2, HeLa-ACE2, SARS-CoV-2 Beta (B.1.351)): 1050 nM | EC50 (Influenza A H1N1/WSN/33): 7490 nM | Mean unbound (Fub, %) (FBS; 2% heat inactivated FBS): 25.0% | Mean unbound (Fub, %) (FBS; 10% heat inactivated FBS): 5.0% | Mean unbound (Fub, %) (FBS; 10% not inactivated FBS): 4.7% | CC50 at 72 h [6]: > 10000 nM | CC50 (Huh-luc/neo-ET cells): > 10000 nM | CC50 at 24 h [7]: 13700 nM | percent effect printed in column EC50 (μM) (Norwalk Virus): 31% @ | EC50 (SARS-CoV-2 USA-WA1/2020 [8]): 675 nM
